According to PubChem BioAssay AID1996:
In brackets after ≈: the same amount, converted by molar mass.

Settings: buffer; pH 7.4; 200.0 µM
For `CC1CCN(c2ccccc2NC(=O)c2ccc([N+](=O)[O-])o2)CC1`, the solubility kinetic was 0.5 µg/mL (≈ 1.52 µM).
`CCN(CC(=O)Nc1c(F)cccc1F)C(=O)CCCc1c[nH]c2ccccc12` showed a solubility kinetic of 7.4 µg/mL (≈ 18.5 µM).
In the case of `CCN(CC(=O)N1CCCC1)S(=O)(=O)c1ccccc1`, the solubility kinetic is reported as > 44.5 µg/mL.
In the case of `CCOC(=O)COc1nc(-c2ccc(Cl)cc2)cc(-c2ccco2)c1C#N`, the solubility kinetic is reported as < 0.4 µg/mL.
For `N#CCC(=O)Nc1ncc(Cc2ccccc2Cl)s1`, the solubility kinetic was 1 µg/mL (≈ 3.43 µM).
In the case of `O=C(CSc1ncccn1)NCc1cccs1`, the solubility kinetic is reported as > 39.8 µg/mL.
With `CN(C)c1cc[n+](CC(=O)Nc2cccc([N+](=O)[O-])c2)cc1.[Cl-]` the solubility kinetic was > 50.5 µg/mL.
`O=C1C(c2ccccc2)NC(=S)N1C1CCCCC1` (stereo not given) showed a solubility kinetic of 2.4 µg/mL (≈ 8.75 µM).
In the case of `O=C(O)C1(Cc2nc3ccccc3[nH]2)CCCC1`, the solubility kinetic is reported as 26.8 µg/mL (≈ 110 µM).
For `CNc1nc(-c2ccc(OC)cc2)c(-c2ccc(OC)cc2)s1`, the solubility kinetic was 1.8 µg/mL (≈ 5.51 µM).
With `CCOC(=O)c1cnc(COc2ccccc2Cl)[nH]c1=O` the solubility kinetic was > 46.3 µg/mL.
Compound `CCC1CCCCN1C(=O)CSc1nc(N)cc(N)n1` (stereo not given) has a solubility kinetic of 43.1 µg/mL (≈ 146 µM).
In the case of `CN1C(=S)SC2CS(=O)(=O)CC21C` (stereo not given), the solubility kinetic is reported as > 35.6 µg/mL.
With `O=C(NNC(=O)c1cccs1)c1ccc(Cl)nc1` the solubility kinetic was > 42.3 µg/mL.
`Nc1ncc(-c2ccccc2)c(-c2ccc(OCc3ccccc3)cc2O)n1` gave a solubility kinetic of 0.4 µg/mL (≈ 1.08 µM).
`CC(=O)c1c(C)[nH]c(C(=O)Nc2cccc(C)c2C)c1C` showed a solubility kinetic of 2 µg/mL (≈ 7.03 µM).
In the case of `CCOC(=O)CN1C(=O)S/C(=C/c2ccc(C)o2)C1=O`, the solubility kinetic is reported as 29.2 µg/mL (≈ 98.9 µM).
With `CN1CCN(c2ccc(CNC(=O)c3ccc4c(c3)OCCO4)cc2)CC1` the solubility kinetic was 49.7 µg/mL (≈ 135 µM).
`O=C1C2C3C=CC(CC3)C2C(=O)N1c1ccccc1F` (stereo not given) gave a solubility kinetic of 19.6 µg/mL (≈ 72.2 µM).
`CCOC(=O)N(C)S(=O)(=O)c1ccccc1[N+](=O)[O-]` showed a solubility kinetic of 42.9 µg/mL (≈ 149 µM).
Compound `Cc1ccc(S(=O)(=O)N2CCCCC2)cc1NC(=O)COc1ccccc1` has a solubility kinetic of 4.3 µg/mL (≈ 11.1 µM).
For `CC1CCN(C(=S)NC(=O)c2ccc(C(C)(C)C)cc2)CC1`, the solubility kinetic was 3.1 µg/mL (≈ 9.73 µM).
For `CCOC(=O)C1CCN(Cc2ccc(-c3ccccc3)cc2)CC1`, the solubility kinetic was 25.6 µg/mL (≈ 79.2 µM).
`Cc1ccc(CC(=O)Nc2nccs2)cc1` showed a solubility kinetic of 29.8 µg/mL (≈ 128 µM).
With `COc1ccc(NC(=O)CNC(=O)Cc2ccccc2)cc1` the solubility kinetic was 10.6 µg/mL (≈ 35.5 µM).
With `CCCCCCN1C2=NCCCN2c2ccccc21.Cl` the solubility kinetic was > 44.1 µg/mL.
For `COC(=O)c1ccc(/C=C/C(=O)OCC(=O)c2ccc[nH]2)cc1`, the solubility kinetic was 6.8 µg/mL (≈ 21.7 µM).
In the case of `Cc1ccccc1Nc1nc(N)nc(-c2oc3ccccc3c2C)n1`, the solubility kinetic is reported as 1 µg/mL (≈ 3.02 µM).
With `N#CCCN(Cc1ccccc1)S(=O)(=O)c1cccs1` the solubility kinetic was > 46 µg/mL.
With `CCc1ccc(OCC(=O)OC(C)C(=O)NC2CC2)cc1` (stereo not given) the solubility kinetic was > 43.7 µg/mL.
In the case of `O=C(Nc1ccc(F)cc1)Nc1ccc2c(c1)CCC2`, the solubility kinetic is reported as < 0.3 µg/mL.
For `Cc1cc(C(=O)Nc2ccc(N3CCOCC3)c(Cl)c2)c(C)o1`, the solubility kinetic was 45.6 µg/mL (≈ 136 µM).
Compound `Cn1c(=O)n(C)c2cc(NC(=O)COc3ccc(F)cc3F)ccc21` has a solubility kinetic of 47.2 µg/mL (≈ 136 µM).
Compound `O=S(=O)(CCN1CCSCC1)c1ccc(Cl)cc1` has a solubility kinetic of 41.3 µg/mL (≈ 135 µM).
Compound `COc1ccccc1C(=O)Nc1nc2ccccc2[nH]1` has a solubility kinetic of 4.2 µg/mL (≈ 15.7 µM).
In the case of `COc1cc(C(=O)OCC(=O)N2CCCCCC2)c([N+](=O)[O-])cc1OC`, the solubility kinetic is reported as > 55 µg/mL.
`Cc1ccc2c(C(=O)CN3CCN(C(=O)c4ccco4)CC3)c(C)[nH]c2c1` gave a solubility kinetic of 14.6 µg/mL (≈ 40 µM).
`Nc1nc(CCl)nc(Nc2ccc3ccccc3c2)n1` showed a solubility kinetic of 29.3 µg/mL (≈ 103 µM).
In the case of `O=C(CNC(=O)COc1ccccc1)NCc1cccnc1`, the solubility kinetic is reported as > 44.9 µg/mL.
For `Cc1cccc(C)c1NC(=S)N1CCC(c2ccccc2)C1` (stereo not given), the solubility kinetic was 34.1 µg/mL (≈ 110 µM).
Compound `Cc1cc(=O)oc2cc(OCC(=O)Nc3cccnc3)ccc12` has a solubility kinetic of 10.5 µg/mL (≈ 33.8 µM).
For `O=C(O)c1ccccc1S(=O)(=O)CC(=O)N1CCCCC1`, the solubility kinetic was > 46.7 µg/mL.
Work on `Cc1ccc(-c2cc(C(=O)N3CCC4(CC3)OCCO4)no2)cc1` yielded a solubility kinetic of 44 µg/mL (≈ 134 µM).
With `COc1ccc2c(c1)c(C(C)=O)c(C)n2C` the solubility kinetic was > 32.6 µg/mL.
`Cc1cc(C)c(NC(=O)C2CC3CCC2C3)c(C)c1` (stereo not given) showed a solubility kinetic of 10.1 µg/mL (≈ 39.2 µM).
Compound `O=C(COC(=O)c1ccco1)Nc1ccc(Cl)cn1` has a solubility kinetic of 24.8 µg/mL (≈ 88.4 µM).
`COCCNC(=O)Cn1cc(C(=O)c2ccccc2F)c2ccccc21` showed a solubility kinetic of 17.9 µg/mL (≈ 50.5 µM).
In the case of `O=C(CCc1nc2ccccc2s1)NC1CCOC1=O` (stereo not given), the solubility kinetic is reported as > 43.6 µg/mL.
For `Cc1ccc2nc(NCCC(=O)O)nc(-c3ccccc3)c2c1`, the solubility kinetic was > 46.1 µg/mL.
`CCCC(C)NC(=O)CN1C(=O)c2cccc3cccc1c23` (stereo not given) gave a solubility kinetic of 8.3 µg/mL (≈ 28 µM).
With `CCCCCC(=O)NC(=S)Nc1cccc(-c2nc3ncccc3o2)c1` the solubility kinetic was < 0.2 µg/mL.
In the case of `CCc1ccc(NC(=O)NCCCN2CCCC2=O)cc1`, the solubility kinetic is reported as > 43.4 µg/mL.
Work on `COC(=O)CC(c1ccc(F)cc1)n1c(C)ccc1C` (stereo not given) yielded a solubility kinetic of 15.7 µg/mL (≈ 57 µM).
For `COc1ccc(NC(=O)c2ccco2)c2ccccc12`, the solubility kinetic was > 40.1 µg/mL.
`O=C(COC(=O)/C=C/c1ccccc1)NCCc1ccc(F)cc1` gave a solubility kinetic of 3.5 µg/mL (≈ 10.7 µM).
With `O=C(CCS(=O)(=O)c1ccc(Cl)cc1)NC1CCCC1` the solubility kinetic was > 47.4 µg/mL.
For `CCOC(=O)Cc1csc(NC(=O)CCCC(=O)O)n1`, the solubility kinetic was > 45 µg/mL.
With `Cc1ccc(S(=O)(=O)N2CCC(C(=O)NCc3ccccc3CN3CCCC3)CC2)cc1` the solubility kinetic was 66.3 µg/mL (≈ 146 µM).
`C/C(N)=C(/C#N)C(=O)COC(=O)c1cc2c(s1)CCCC2` showed a solubility kinetic of 2.2 µg/mL (≈ 7.23 µM).
Compound `CC(=O)c1ccc(N=C2SCCCN2C(=O)C2CCCC2)cc1` has a solubility kinetic of 47.5 µg/mL (≈ 144 µM).
